Source: patent US20240294525A1, “COMPOUNDS AS GLP-1 RECEPTOR AGONISTS AND USES THEREOF” (CGENETECH (SUZHOU, CHINA) CO., LTD., priority 2021, published 2024)

Tests used:
[1] = target: GLP-1R (Homo sapiens, UniProt P43220); test: GLP-1R cAMP experiment (HTRF cAMP agonist detection); assay type: cell-based; conditions: GLP-1R-HEK293 cells
Experimental: The initial concentration was 500 nM, the compounds were diluted according to a 4-fold gradient in a total of 10 concentrations, and the diluent was dimethyl sulfoxide.
• 1) 100 nL of each compound was transferred to a OptiPlate 384-well plate by using an Echo liquid transfer system; and • 2) the 384-well plate was centrifuged at 1000 rpm for 5 s.
• 1) According to a conventional cell thawing method, a GLP-1R-HEK293 cell line was rapidly thawed in a 37° C. water bath; • 2) the cell suspension was transferred to a 15 mL centrifuge tube containing 10 mL of 1×HBSS solution; • 3) at room temperature, the tube was centrifuged at 1000 rpm for 5 min, to collect cells; 4) a supernatant was discarded carefully, and attention was paid to avoid sucking away the cells; • 5) the centrifuge tube was flicked gently, so that the cells were loosened, and 10 mL of 1×HBSS solution was added to resuspend the cells. The cells were blown and beaten up and down by using a sterile pipette, until the cells were blown and beaten to a single-cell state; • 6) the cells were counted by using a Vi-cell counter, to determine the cell concentration and determine the cell activity; • 7) GLP-1R-HEK293 cells were resuspended in a cAMP detection buffer solution (from the above cAMP detection kit), and the concentration was 2.0×10^5/mL; and 8) 10 μL of the GLP-1R-HEK293 cells was transferred into the OptiPlate 384-well plate. 2.4 HTRF cAMP Agonist Detection • 1) The 384-well plate was incubated at room temperature for 20 min, then a cAMP detection reagent (from the above cAMP detection kit) was added; • 2) an electric multi-channel pipette was used to add 10 μL of the cAMP detection reagent to each well; • 3) the 384-well plate was covered by using a TopSeal-A film, and incubated at room temperature for 60 min; and • 4) the TopSeal-A film was removed, and a signal on an Envision instrument was read.

[2] = Oral pharmacokinetics in mice; assay type: in vivo, C57 mice; conditions: 10 mg/kg
Experimental: Healthy male C57 mice (9 mice per compound, n=3), purchased from Shanghai Jihui Laboratory Animal Care Co., LTD, with an age of 6-8 weeks.
The mice were fasted overnight before oral administration, and drunk freely, and feeding was resumed after 4 h of the administration. According to the weight of the mice weighed before the administration, the administration dose was calculated. It was intragastrically administered, and the administration dose was 10 mg/kg. At 0.083 h, 0.25 h, 0.5 h, 1 h, 2 h, 4 h, 8 h, and 24 h after the administration to test animals, about 110 μL of whole blood were respectively collected from submandibular veins of the mice by a semi-continuous method, and placed in a test tube containing K2EDTA. The tube was placed on ice, and centrifuged within 30 min (2000 g, 5 min, 4° C.), plasma was collected, transferred to an appropriately labeled test tube, and frozen at −80° C. in a refrigerator.
A chromatographic column was Waters ACQUITY UPLC BEH C18 (2.1×50 mm, and 1.7 μm); mobile phase A: H2O-0.025% FA-1 mM NH4OAC, mobile phase B: ACN-0.025% FA-1 mM NH4OAC, flow rate: 0.60 mL/min, gradient elution program: start, 2% B, 0.2 min; 60% B, 0.7 min; 90% B, 1.50 min; 90% B, 2.0 min; 2% B, 2.01 min; 2.6 min, and stop; column temperature: 50° C.; and injection volume: 1 μL.
Mass spectrometry method: LC-MS/MS-49 (Triple Quad 6500+)(SCIEX, USA), the ion source was an ESI source, the detection mode was positive ion detection, and the scanning mode was a multi-reaction monitoring (MRM) mode, m/z: 446.20/321.10 Da (Glipizide, internal standard).
10 μL of a plasma sample was taken and 200 μL of an internal standard working solution (Glipizide, 50 ng/mL) was added, vortex was performed for 1 min, then the mixture was centrifuged at 5800 rpm for 10 min. 70 μL of a supernatant was transferred to a 96-well plate, and 1 μL of the supernatant was taken and injected into LC-MS/MS for analysis.
Pharmacokinetic (PK) parameters were calculated by using Phoenix WinNonlin 7.0; and the oral pharmacokinetic parameters of the mice, including AUC, Cmax, Tmax, T1/2 and the like, were estimated by using a non-compartmental model. […] PGP-46 T2

[3] = tested on: patients with Type-2 diabetes mellitus; conditions: first-phase clinical; cited from earlier work
[4] = tested on: hGLP-1R transgenic mouse B-hGLP-1R; test: Mouse intraperitoneal glucose tolerance test (IPGTT); assay type: in vivo; conditions: hGLP-1R mice, 10 mg/kg oral gavage
Description: Specific steps were as follows: • 1) After the arrival of experimental animals (hGLP-1R transgenic mouse B-hGLP-1R, SPF-grade mouse, male, 6-8 weeks, and purchased from Baiosaitu Jiangsu Gene Biotechnology Co., Ltd.), all experimental animals were divided into one animal per cage and fed and adapted for 7 days before the start of the experiment (during which the health status of the animals was observed). At least 3 days before the start of IPGTT, the animals were weighed and solvent (0.5% methylcellulose solution) intragastric administration and intraperitoneal saline injection were performed. • 2) On the day before the experiment, the experimental animals were fasted overnight (14 h, 19:00-9:00), and at 9:00 am, the experimental animals were weighed and blood was collected from tail tips to measure the blood glucose.

Sequence of GLP-1R (P43220 24-463): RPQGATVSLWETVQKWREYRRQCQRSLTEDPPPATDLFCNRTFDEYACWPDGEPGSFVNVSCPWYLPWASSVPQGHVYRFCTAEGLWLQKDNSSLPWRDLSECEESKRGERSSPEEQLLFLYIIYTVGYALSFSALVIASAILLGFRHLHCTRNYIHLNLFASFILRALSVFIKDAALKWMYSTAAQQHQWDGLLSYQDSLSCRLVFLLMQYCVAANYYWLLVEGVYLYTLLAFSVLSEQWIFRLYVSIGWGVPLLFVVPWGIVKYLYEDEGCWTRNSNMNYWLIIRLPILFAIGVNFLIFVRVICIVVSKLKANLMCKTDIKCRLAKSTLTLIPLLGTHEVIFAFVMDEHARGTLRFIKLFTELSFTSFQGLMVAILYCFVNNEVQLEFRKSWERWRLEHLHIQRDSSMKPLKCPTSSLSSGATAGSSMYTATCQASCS

| SMILES | EC50 [1] | AUC(0-inf) ([2]; male, C57, mouse, in vivo, po) | AUC(0-t) ([2]; male, C57, mouse, in vivo, po) | Cmax ([2]; male, C57, mouse, in vivo, po) | MRT inf ([2]; male, C57, mouse, in vivo, po) | MRT last ([2]; male, C57, mouse, in vivo, po) | Tmax ([2]; male, C57, mouse, in vivo, po) | half-life ([2]; male, C57, mouse, in vivo, po) | other results |
| --- | --- | --- | --- | --- | --- | --- | --- | --- | --- |
| C#Cc1ccc(COc2cccc(N3CCN(Cc4nc5ccc(C(=O)O)cc5n4C[C@@H]4CCO4)CC3)n2)cc1 [Compound 7] | 0.39 nM | 12500 ng·h/mL | 12500 ng·h/mL | 6170 ng/mL | 2 h | 2 h | 0.5 h | 3.1 h |  |
| C#Cc1ccc(COc2cccc(N3CCN(Cc4nc5ccc(C(=O)O)nc5n4C[C@@H]4CCO4)CC3)n2)c(F)c1 [Compound 9] | 0.15 nM | 3920 ng·h/mL | 3880 ng·h/mL | 2620 ng/mL | 1.4 h | 1.3 h | 0.5 h | 1.4 h |  |
| C#Cc1ccc(COc2cccc(N3CCN(Cc4nc5c(F)cc(C(=O)O)cc5n4C[C@@H]4CCO4)CC3)n2)c(Cl)c1 [Compound 12] | 0.41 nM |  |  |  |  |  |  |  |  |
| O=C(O)c1ccc2nc(CN3CCN(c4cccc(OCc5ccc(C#CCO)cc5F)n4)CC3)n(C[C@@H]3CCO3)c2c1 [Compound 5] | 5.2 nM |  |  |  |  |  |  |  |  |
| N#Cc1ccc(COc2cccc(C3CCN(Cc4nc5ccc(C(=O)O)cc5n4C[C@@H]4CCO4)CC3)n2)c(F)c1 [PF-06882961, reference compound] |  |  |  |  |  |  |  |  | AUC(0-t) ([2]; male C57 mice, intragastric): 3427.0 ng·h/mL; AUC(0-∞) ([2]; male C57 mice, intragastric): 3444.0 ng·h/mL; Cmax ([2]; male C57 mice, intragastric): 4967.0 ng/mL; MRT(0-t) ([2]; male C57 mice, intragastric): 0.8 h; MRT(0-∞) ([2]; male C57 mice, intragastric): 0.8 h; T1/2 ([2]; male C57 mice, intragastric): 1.4 h; Tmax ([2]; male C57 mice, intragastric): 0.25 h; effects on blood glucose and weight [3]: significant effects on reducing blood glucose and weight |
| C#Cc1ccc(COc2nc(N3CCN(Cc4nc5ccc(C(=O)O)cc5n4C[C@@H]4CCO4)CC3)ccc2F)cc1 [Compound 15] | 0.85 nM |  |  |  |  |  |  |  |  |
| C#Cc1ccc(COc2nc(C3CCN(Cc4nc5ccc(C(=O)O)nc5n4C[C@@H]4CCO4)CC3)ccc2F)c(F)c1 [Compound 20] | 0.59 nM |  |  |  |  |  |  |  |  |
| C#Cc1ccc(COc2cccc(C3CCN(Cc4nc5ccc(C(=O)O)cc5n4C[C@@H]4CCO4)CC3)n2)c(F)c1 [Compound 1] | 0.82 nM | 3560 ng·h/mL | 3310 ng·h/mL | 1700 ng/mL | 1.8 h | 1.5 h | 0.5 h | 2.2 h |  |
| O=C(O)c1ccc2nc(CN3CCN(c4cccc(OCc5ccc(C#CC6CC6)cc5F)n4)CC3)n(C[C@@H]3CCO3)c2c1 [Compound 4] | 1.75 nM |  |  |  |  |  |  |  |  |
| C#Cc1ccc(COc2nc(N3CCN(Cc4nc5ccc(C(=O)O)nc5n4C[C@@H]4CCO4)CC3)ccc2F)cc1 [Compound 16] | 1.07 nM |  |  |  |  |  |  |  |  |
| C#Cc1ccc(COc2cccc(N3CCN(Cc4nc5ccc(C(=O)O)cc5n4C[C@@H]4CCO4)CC3)n2)c(Cl)c1 [Compound 8] | 0.1 nM | 10900 ng·h/mL | 10900 ng·h/mL | 4370 ng/mL | 2.5 h | 2.5 h | 1 h | 2.3 h |  |
| CC#Cc1ccc(COc2cccc(N3CCN(Cc4nc5ccc(C(=O)O)cc5n4C[C@@H]4CCO4)CC3)n2)c(F)c1 [Compound 3] | 0.8 nM |  |  |  |  |  |  |  |  |
| C#Cc1ccc(COc2cccc(C3CCN(Cc4nc5c(F)cc(C(=O)O)cc5n4C[C@@H]4CCO4)CC3)n2)c(F)c1 [Compound 11] | 0.14 nM | 2280 ng·h/mL | 2270 ng·h/mL | 2030 ng/mL | 1.9 h | 1.8 h | 0.5 h | 3.9 h |  |
| C#Cc1ccc(COc2nc(N3CCN(Cc4nc5ccc(C(=O)O)cc5n4C[C@@H]4CCO4)CC3)ccc2F)c(Cl)c1 [Compound 19] | 0.51 nM | 10300 ng·h/mL | 10300 ng·h/mL | 3300 ng/mL | 2.7 h | 2.7 h | 0.5 h | 2.4 h |  |
| C#Cc1ccc(COc2nc(N3CCN(Cc4nc5ccc(C(=O)O)nc5n4C[C@@H]4CCO4)CC3)ccc2F)c(Cl)c1 [Compound 18] | 0.37 nM | 4140 ng·h/mL | 4130 ng·h/mL | 1470 ng/mL | 3.1 h | 3.1 h | 0.5 h | 2.6 h |  |
| C#Cc1ccc(COc2cccc(N3CCN(Cc4nc5ccc(C(=O)O)cc5n4C[C@@H]4CCO4)CC3)n2)c(F)c1 [Compound 2] | 0.96 nM | 7010 ng·h/mL | 6930 ng·h/mL | 3170 ng/mL | 3 h | 2.8 h | 0.5 h | 2.6 h | blood glucose reducing effect ([4]; 2 g/kg glucose i.p.): significant blood glucose reducing effect; overall blood glucose-reducing effect compared with PF-06882961 ([4]; IPGTT): better than PF-06882961 |
| C#Cc1ccc(COc2nc(N3CCN(Cc4nc5ccc(C(=O)O)nc5n4C[C@@H]4CCO4)CC3)ccc2F)c(F)c1 [Compound 17] | 0.56 nM | 5140 ng·h/mL | 5130 ng·h/mL | 2830 ng/mL | 1.9 h | 1.9 h | 0.25 h | 3 h |  |
| C#Cc1ccc(COc2nc(N3CCN(Cc4nc5ccc(C(=O)O)cc5n4C[C@@H]4CCO4)CC3)ccc2F)c(F)c1 [Compound 10] | 0.1 nM | 9800 ng·h/mL | 9780 ng·h/mL | 4350 ng/mL | 2.6 h | 2.5 h | 0.5 h | 2.7 h |  |
